Data set [1] concerns the target T1, Abl TK (Homo sapiens, UniProt P00519).
T1 construct: purchased Merck Millipore
Briefly: BacKin assay, inhibition and substrate competition (surface-displayed abltide phosphorylation, flow cytometry). In kind it is biochemical. The following applies: for IC50: 0.5 U/mL Abl kinase, 30 min at 37°C, flow cytometry, biotin-anti-PY/SAPE, average of three independent experiments±SD. On the technique in general: In flow cytometry, cells or beads pass a laser one at a time.

The conditions of data set [2]: one U = 1 nmol of phosphate incorporated into 50 µM abltide per minute at 30°C, 100 µM ATP; ref Merck Millipore; cited from earlier work. The procedure: The kinase activity of Bcr-Abl TK is located in the Abl domain (Figure 1). […] The activity of Abl TK was first examined using LC-MS. The time-course for phosphorylation of 60 µM of soluble abltide was followed with 0.5 U/mL Abl TK in kinase buffer (50 mM Tris-HCl, 10 mM MgCl2, 0.1 mM EDTA, 2 mM dithiothreitol and 0.01% (v/v) Brij 35, NEBuffer, New England BioLa ...

The subject of data set [3] is Abl kinase. The following applies: in words.
In data set [4] the test system is Abl kinase. The data set is described as follows: Validation of BacKin assay: fluorescence of kinase-treated displaying cells by flow cytometry. In kind it is biochemical, Human. The following applies: after 30 min incubation with Abl kinase; 585/42 nm.

Residues, ends and D or L forms follow the SMILES beside them.

T1 sequence (P00519 whole entry): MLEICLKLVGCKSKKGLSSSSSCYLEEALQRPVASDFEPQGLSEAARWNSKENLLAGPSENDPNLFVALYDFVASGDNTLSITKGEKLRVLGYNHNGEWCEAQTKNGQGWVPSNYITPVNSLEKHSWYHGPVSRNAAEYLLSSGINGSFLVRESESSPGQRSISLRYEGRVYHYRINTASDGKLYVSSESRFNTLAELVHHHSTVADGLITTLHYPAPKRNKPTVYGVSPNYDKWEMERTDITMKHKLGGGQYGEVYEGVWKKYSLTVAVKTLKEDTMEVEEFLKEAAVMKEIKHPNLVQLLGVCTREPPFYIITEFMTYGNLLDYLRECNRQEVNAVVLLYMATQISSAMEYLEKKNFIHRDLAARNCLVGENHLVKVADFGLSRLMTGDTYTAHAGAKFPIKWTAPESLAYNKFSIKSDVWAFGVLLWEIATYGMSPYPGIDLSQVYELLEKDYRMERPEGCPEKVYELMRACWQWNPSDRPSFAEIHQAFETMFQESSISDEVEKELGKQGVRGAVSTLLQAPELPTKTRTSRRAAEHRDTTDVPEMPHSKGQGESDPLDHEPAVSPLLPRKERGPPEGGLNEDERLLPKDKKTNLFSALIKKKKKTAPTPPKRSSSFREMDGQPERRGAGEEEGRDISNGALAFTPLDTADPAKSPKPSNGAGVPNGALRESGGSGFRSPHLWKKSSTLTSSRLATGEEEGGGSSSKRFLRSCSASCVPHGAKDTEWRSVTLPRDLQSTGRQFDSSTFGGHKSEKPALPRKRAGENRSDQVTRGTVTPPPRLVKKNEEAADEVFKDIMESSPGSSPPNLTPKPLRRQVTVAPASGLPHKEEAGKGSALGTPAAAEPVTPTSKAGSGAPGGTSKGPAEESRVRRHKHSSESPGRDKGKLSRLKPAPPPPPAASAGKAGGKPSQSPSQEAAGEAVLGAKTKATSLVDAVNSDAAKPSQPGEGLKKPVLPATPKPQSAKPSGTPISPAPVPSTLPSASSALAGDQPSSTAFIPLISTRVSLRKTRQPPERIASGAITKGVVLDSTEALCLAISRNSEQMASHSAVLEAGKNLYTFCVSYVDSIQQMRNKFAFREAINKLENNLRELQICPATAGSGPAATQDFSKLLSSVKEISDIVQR

What is called IC50 is the concentration needed to halve the response being measured. High values mean weaker potency, low ones greater potency. On to `CC[C@H](C)[C@H](NC(=O)[C@H](C)NC(=O)[C@@H](N)CCC(=O)O)C(=O)N[C@@H](Cc1ccc(O)cc1)C(=O)N[C@@H](C)C(=O)N[C@@H](C)C(=O)N1CCC[C@H]1C(=O)N[C@@H](Cc1ccccc1)C(=O)N[C@@H](C)C(=O)N[C@@H](CCCCN)C(=O)N[C@@H](CCCCN)C(=O)N[C@@H](CCCCN)C(=O)O` [abltide] (H-EAIYAAPFAKKK-OH), for which the IC50 was 21.5 ± 2.64 µM in data set [1] (50 µM ATP) and 37.5 ± 3.95 µM in data set [1] (500 µM ATP).

Turning to “Abl TK: Human active Abl (121 kDa, 1067 U/mg, Merck Millipore)”, the specific activity in data set [2] is recorded as 1067 U/mg. Regarding EAIFAAPYAKKK [[Y4F,F8Y]], in data set [1] (in words, peptide concentrations ranging from 64 to 0.25 µM, 0.5 U/mL kinase, 30 min, analogue tested with 500 µM ATP, average of two replicates), the “inhibition of kinase activity / competition” value is “did not inhibit kinase activity in the concentration range tested”. Moreover, the “phosphorylation by Abl kinase” value in data set [3] is “is not phosphorylated by Abl kinase”. For “abltide-displaying cells: E. coli MC1061 displaying KKGEAIYAAPFA fused via spacer GGQSGQ to the N-terminus of the eCPX display scaffold”, the “percentage of fluorescent cells” value in data set [4] is reported as approximately 96%.

The values are drawn from publication PMC3829888, “A Novel Quantitative Kinase Assay Using Bacterial Surface Display and Flow Cytometry” (PLoS ONE, 2013).
